From US10149876B2, “Tripterygium wilfordii extracts to overcome chemotherapy resistance” (WESTERN UNIVERSITY OF HEALTH SCIENCES, priority 2012, dated 2018)
Where “and” joins values, the source holds several entries; their conditions need not be identical. Identical values can stand only once. Like-named read-outs stand apart in the source and are kept apart here.

Legend:
PC3 cells = assay: SRB cell viability assay, docetaxel-sensitive PC3 cells; type: cell-based; conditions: Homo sapiens, PC-3; read-out: IC50 of drug when cells treated with drug only
Method: (§1) The chemotherapeutic drugs that were tested for chemosensitization in combination with LTG-E were docetaxel, daunorubicin, Herceptin®, and lapatinib. […] Table 17 also contains the serially-diluted concentrations of drugs that each cell line was tested against.

DU145 cells = assay: SRB cell viability assay, docetaxel-sensitive DU145 cells; type: cell-based; conditions: Homo sapiens; for viability at 1 pM: docetaxel 0.001 nM 72 h; for viability at 0.000333 µM: docetaxel 0.333 nM 72 h; for viability at 0.001 µM: docetaxel 1 nM 72 h; for viability at 0.00333 µM: docetaxel 3.33 nM 72 h; for viability at 0.01 µM: docetaxel 10 nM 72 h; for viability at 0.0333 µM: docetaxel 33.3 nM 72 h; for viability at 0.1 µM: docetaxel 100 nM 72 h; for IC50: DU-145
Method: as §1
Using the methods described in Example 2, the chemosensitizing effect of LGT-E pretreatment on docetaxel-treated DU145 cells was studied. […] Table 20 reports control data obtained from DU145 cells that were not pre-treated with LGT-E. FIG. 7 summarizes the data of Tables 19 and 20 in a graphical format.

K562/Dox cells = assay: SRB cell viability assay, daunorubicin-resistant K562/Dox cells; type: cell-based, human; conditions: 72 h, background = 0.043
[1] = DU-145, read-out: % viable, DU145, LGT-E 50 μg/ml pre-treatment
[2] = DU-145, read-out: % viable, DU145, no LGT-E pre-treatment

With `CC(=O)O[C@@]12CO[C@@H]1C[C@H](O)[C@@]1(C)C(=O)[C@H](O)C3=C(C)[C@@H](OC(=O)[C@H](O)[C@@H](NC(=O)OC(C)(C)C)c4ccccc4)C[C@@](O)([C@@H](OC(=O)c4ccccc4)[C@H]21)C3(C)C` [Docetaxel, docetaxel] the IC50 (PC3 cells) was 1.8 nM and 0.00145 µg/mL, the viability at 1 pM (DU145 cells; [1]) was 100% and the viability at 0.000333 µM (DU145 cells; [1]) was 100%. The viability at 0.001 µM (DU145 cells; [1]) was 97.4%, the viability at 0.00333 µM (DU145 cells; [1]) was 54% and the viability at 0.01 µM (DU145 cells; [1]) was 23.9%. It also gave a viability at 0.0333 µM (DU145 cells; [1]) of 9.6%, a viability at 0.1 µM (DU145 cells; [1]) of 9.3% and a viability at 1 pM (DU145 cells; [2]) of 100%. It also gave a viability at 0.0001 µM (DU145 cells; DU-145, read-out: % viable, DU145, no LGT-E pre-treatment, docetaxel 0.1 nM 72 h) of 100%, a viability at 0.000333 µM (DU145 cells; [2]) of 101% and a viability at 0.001 µM (DU145 cells; [2]) of 100%. For the same compound, the viability at 0.00333 µM (DU145 cells; [2]) was 86.9%, the viability at 0.01 µM (DU145 cells; [2]) was 44.4% and the viability at 0.0333 µM (DU145 cells; [2]) was 24.1%. The viability at 0.1 µM (DU145 cells; [2]) was 21.8%, the IC50 (DU145 cells; read-out: IC50 of drug when cells pre-treated with Chemosensitizing Agent before drug treatment) was 3.39 nM and 0.00274 µg/mL and the IC50 (DU145 cells; read-out: IC50 of drug when cells treated with drug only) was 6.65 nM and 0.00537 µg/mL. For the same compound, the “mean A at 565 nm” value (K562/Dox cells; Docetaxel 0.001 nM (so in the source), no LGT-E pre-treatment) was 2.771, the “mean A at 565 nm” value (K562/Dox cells; Docetaxel 0.001 nM (so in the source), pre-treated with 25 μg/ml LGT-E) was 2.747 and the “mean A at 565 nm” value (K562/Dox cells; Docetaxel 0.1 nM (so in the source), no LGT-E pre-treatment) was 2.933. The “mean A at 565 nm” value (K562/Dox cells; Docetaxel 0.1 nM (so in the source), pre-treated with 25 μg/ml LGT-E) was 2.848, the “mean A at 565 nm” value (K562/Dox cells; Docetaxel 0.333 nM (so in the source), no LGT-E pre-treatment) was 2.960 and the “mean A at 565 nm” value (K562/Dox cells; Docetaxel 0.333 nM (so in the source), pre-treated with 25 μg/ml LGT-E) was 2.811. The “mean A at 565 nm” value (K562/Dox cells; Docetaxel 1 nM (so in the source), no LGT-E pre-treatment) was 2.509, the “mean A at 565 nm” value (K562/Dox cells; Docetaxel 1 nM (so in the source), pre-treated with 25 μg/ml LGT-E) was 2.706 and the “mean A at 565 nm” value (K562/Dox cells; Docetaxel 3.33 nM (so in the source), no LGT-E pre-treatment) was 2.848. The “mean A at 565 nm” value (K562/Dox cells; Docetaxel 3.33 nM (so in the source), pre-treated with 25 μg/ml LGT-E) was 2.300, the “mean A at 565 nm” value (K562/Dox cells; Docetaxel 10 nM (so in the source), no LGT-E pre-treatment) was 2.716 and the “mean A at 565 nm” value (K562/Dox cells; Docetaxel 10 nM (so in the source), pre-treated with 25 μg/ml LGT-E) was 1.259. The “mean A at 565 nm” value (K562/Dox cells; Docetaxel 33.3 nM (so in the source), pre-treated with 25 μg/ml LGT-E) was 1.175, the “mean A at 565 nm” value (K562/Dox cells; Docetaxel 100 nM (so in the source), no LGT-E pre-treatment) was 0.723 and the “mean A at 565 nm” value (K562/Dox cells; Docetaxel 100 nM (so in the source), pre-treated with 25 μg/ml LGT-E) was 0.510.
